ChEMBL document CHEMBL4610120, “New Broad-Spectrum Antibiotics Containing a Pyrrolobenzodiazepine Ring with Activity against Multidrug-Resistant Gram-Negative Bacteria” (J Med Chem, 2020)
In brackets after ≈: the same amount, converted by molar mass. Activity calls are given as the source filed them. The calls are words filed in the database; no cut-off is given here.

Columns and labels:
Pseudomonas aeruginosa [1] = assay: Antimicrobial activity against Pseudomonas aeruginosa PAO1 in presence of efflux pump inhibitor CCCP by microdilution broth method; assay type: functional
[2] = Antimicrobial activity against multidrug-resistant Burkholderia cepacia complex LMG 17997 by microdilution broth method; assay type: functional
[3] = Selectivity ratio of cytotoxicity against human WI38 cells to MIC for methicillin sensitive Staphylococcus aureus NCTC 6571; assay type: toxicity, cell-based
Acinetobacter baumannii [4] = assay: Antimicrobial activity against multidrug-resistant Acinetobacter baumannii AYE by microdilution broth method; assay type: functional
Escherichia coli [5] = assay: Antimicrobial activity against multidrug-resistant Escherichia coli CFI_017_VIM4 by microdilution broth method; assay type: functional
Pseudomonas aeruginosa [6] = assay: Ratio of MIC for multidrug-resistant Pseudomonas aeruginosa NCTC 13437 to MIC for multidrug-resistant Pseudomonas aeruginosa NCTC 13437 in presence of membrane permeabilizer PMBN; assay type: functional
Pseudomonas aeruginosa [7] = assay: Antimicrobial activity against multidrug-resistant Pseudomonas aeruginosa NCTC 13437 in presence of efflux pump inhibitor CCCP by microdilution broth method; assay type: functional
[8] = Selectivity ratio of cytotoxicity against human WI38 cells to MIC for Pseudomonas aeruginosa PAO1; assay type: toxicity, cell-based
DNA gyrase = DNA gyrase (Escherichia coli, UniProt P0AES6+P0AES4); assay: Inhibition of Escherichia coli DNA gyrase using relaxed pNO1 as substrate by gel based fluorescence assay; assay type: protein-complex assay
Klebsiella pneumoniae [9] = assay: Antimicrobial activity against multidrug-resistant Klebsiella pneumoniae M6 by microdilution broth method; assay type: functional
[10] = biological target: T1, DNA repair protein RecN (Escherichia coli) (UniProt P05824); assay: Induction of Escherichia coli K12 MG1655 recN promotor measured at 30 mins interval for 20 hrs by fluorescence assay relative to control; settings: Escherichia coli str. K-12 substr. MG1655
T1 sequence (whole entry): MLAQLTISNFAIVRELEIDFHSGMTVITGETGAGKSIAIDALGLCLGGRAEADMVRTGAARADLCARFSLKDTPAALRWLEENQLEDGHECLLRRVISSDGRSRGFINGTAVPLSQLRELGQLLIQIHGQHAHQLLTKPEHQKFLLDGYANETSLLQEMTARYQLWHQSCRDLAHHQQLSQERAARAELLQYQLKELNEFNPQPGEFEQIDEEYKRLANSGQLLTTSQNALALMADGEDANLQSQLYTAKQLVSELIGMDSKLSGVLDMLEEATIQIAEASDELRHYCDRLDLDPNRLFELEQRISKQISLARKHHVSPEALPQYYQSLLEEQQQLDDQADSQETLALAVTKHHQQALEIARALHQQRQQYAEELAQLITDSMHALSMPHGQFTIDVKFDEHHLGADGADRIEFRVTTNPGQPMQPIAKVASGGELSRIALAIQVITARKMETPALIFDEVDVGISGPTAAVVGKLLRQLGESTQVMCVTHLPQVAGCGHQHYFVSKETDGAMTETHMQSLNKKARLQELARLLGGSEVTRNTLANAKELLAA

Burkholderia cenocepacia = assay: Antimicrobial activity against multidrug-resistant Burkholderia cenocepacia K56-2 by microdilution broth method; assay type: functional
[11] = biological target: T2, LexA repressor (Escherichia coli) (UniProt P0A7C2); assay: Induction of Escherichia coli K12 MG1655 lexA promotor measured at 30 mins interval for 20 hrs by fluorescence assay relative to control; settings: Escherichia coli str. K-12 substr. MG1655
T2 sequence (whole entry): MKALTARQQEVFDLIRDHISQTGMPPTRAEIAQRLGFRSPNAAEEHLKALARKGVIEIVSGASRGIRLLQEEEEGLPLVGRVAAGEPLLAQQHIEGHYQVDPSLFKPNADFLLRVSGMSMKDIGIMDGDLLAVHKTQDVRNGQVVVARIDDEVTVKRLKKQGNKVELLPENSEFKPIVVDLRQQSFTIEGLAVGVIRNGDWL

[12] = Selectivity ratio of cytotoxicity against human WI38 cells to MIC for vancomycin sensitive Enterococcus faecalis NCTC 775; assay type: toxicity, cell-based
[13] = Antimicrobial activity against multidrug-resistant Burkholderia cepacia complex NCTC 17765 by microdilution broth method; assay type: functional
[14] = Selectivity ratio of cytotoxicity against human WI38 cells to MIC for methicillin resistant Staphylococcus aureus NCTC 13616; assay type: toxicity, cell-based
Klebsiella pneumoniae [15] = assay: Antimicrobial activity against Klebsiella pneumoniae M6 assessed as mutation frequency at 4 times MIC measured after 48 hrs; assay type: functional
Escherichia coli [16] = assay: Antimicrobial activity against multidrug-resistant Escherichia coli NCTC 12923 assessed as mutation frequency at 4 times MIC measured after 48 hrs; assay type: functional
[17] = Selectivity ratio of cytotoxicity against human WI38 cells to MIC for Acinetobacter baumannii ATCC 17978; assay type: toxicity, cell-based
Acinetobacter baumannii [18] = assay: Antimicrobial activity against multidrug-resistant Acinetobacter baumannii NCTC 13424 in presence of efflux pump inhibitor CCCP by microdilution broth method; assay type: functional
[19] = Selectivity ratio of cytotoxicity against human WI38 cells to MIC for Klebsiella pneumoniae M6; assay type: toxicity, cell-based
[20] = biological target: T3, Cell division inhibitor SulA (Escherichia coli K-12) (UniProt P0AFZ5); assay: Induction of Escherichia coli K12 MG1655 sulA promotor measured at 30 mins interval for 20 hrs by fluorescence assay relative to control; settings: Escherichia coli str. K-12 substr. MG1655
T3 sequence (whole entry): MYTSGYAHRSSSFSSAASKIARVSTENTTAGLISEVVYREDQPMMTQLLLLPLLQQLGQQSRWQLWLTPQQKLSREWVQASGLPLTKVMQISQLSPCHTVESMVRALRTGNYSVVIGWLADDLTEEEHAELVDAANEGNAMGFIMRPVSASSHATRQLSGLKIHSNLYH

Pseudomonas aeruginosa [21] = assay: Antimicrobial activity against Pseudomonas aeruginosa PAO1 by microdilution broth method; assay type: functional
Pseudomonas aeruginosa [22] = assay: Antimicrobial activity against multidrug-resistant Pseudomonas aeruginosa NCTC 13437 in presence of efflux pump inhibitor PAbetaN by microdilution broth method; assay type: functional
[23] = Selectivity ratio of cytotoxicity against human WI38 cells to MIC for multidrug-resistant Acinetobacter baumannii AYE; assay type: toxicity, cell-based
Klebsiella pneumoniae [24] = assay: Antibacterial activity against multidrug-resistant Klebsiella pneumoniae NCTC 13368 measured after 10 passages by microdilution broth method; assay type: functional
Acinetobacter baylyi = assay: Antimicrobial activity against multidrug-resistant Acinetobacter baylyi ADP1 by microdilution broth method; assay type: functional
Enterococcus faecium = assay: Antibacterial activity against vancomycin resistant Enterococcus faecium NCTC 12204 by microdilution broth method; assay type: functional
[25] = Selectivity ratio of cytotoxicity against human WI38 cells to MIC for multidrug-resistant Klebsiella pneumoniae NCTC 13368; assay type: toxicity, cell-based
Klebsiella pneumoniae [26] = assay: Bactericidal activity against multidrug-resistant Klebsiella pneumoniae NCTC 13368 assessed as reduction in viable bacterial count at 4 times MIC measured after 24 hrs by Miles-Misra dilution method based time-kill assay; assay type: functional, organism-based
Acinetobacter baumannii [27] = assay: Antimicrobial activity against multidrug-resistant Acinetobacter baumannii UKA7 by microdilution broth method; assay type: functional
Klebsiella pneumoniae [28] = assay: Ratio of MIC for multidrug-resistant Klebsiella pneumoniae NCTC 13368-7-R2 measured after 10 passages to MIC for multidrug-resistant Klebsiella pneumoniae NCTC 13368-7-R2 measured after 10 passages in presence of efflux pump inhibitor PAbetaN; assay type: functional
Klebsiella pneumoniae [29] = assay: Antimicrobial activity against multidrug-resistant Klebsiella pneumoniae NCTC 13368 in presence of membrane permeabilizer PMBN by microdilution broth method; assay type: functional

Row | SMILES | MIC (Pseudomonas aeruginosa [1]) | MIC [2] | selectivity ratio [3] | MIC (Acinetobacter baumannii [4]) | MIC (Escherichia coli [5]) | Ratio (Pseudomonas aeruginosa [6]) | MIC (Pseudomonas aeruginosa [7]) | selectivity ratio [8] | IC50 (DNA gyrase) | MIC (Klebsiella pneumoniae [9]) | fold change (FC) [10] | MIC (Burkholderia cenocepacia) | fold change (FC) [11] | selectivity ratio [12] | MIC [13] | selectivity ratio [14] | selectivity ratio [17] | MIC (Acinetobacter baumannii [18]) | selectivity ratio [19] | fold change (FC) [20] | also measured
1 | COc1cc2c(cc1OCCCC(=O)Nc1cc(C(=O)Nc3ccc4sc(C(=O)N(C)C)cc4c3)n(C)c1)N=C[C@@H]1CCCN1C2=O | > 32 µg/mL | 0.125 µg/mL (≈ 0.19 µM) | 100 | 0.5 to 1 µg/mL (≈ 0.761 to 1.52 µM) | 1 µg/mL (≈ 1.52 µM) | 32 - 1000 | > 32 µg/mL | 10 | Nd(Insoluble) | 1 µg/mL (≈ 1.52 µM) | 6 to 11 | 2 µg/mL (≈ 3.05 µM) | 5 to 9 | 100 | 0.125 µg/mL (≈ 0.19 µM) | 100 | 10 | 0.25 µg/mL | 10 | 6 to 7 | Activity (Klebsiella pneumoniae [15]): 1 ×10⁻⁶ No_unit; Activity (Escherichia coli [16]): <4.3 ×10⁻⁸ No_unit; MIC (Pseudomonas aeruginosa [21]): > 32 µg/mL; MIC (Pseudomonas aeruginosa [22]): 16 µg/mL; selectivity ratio [23]: 10; MIC (Klebsiella pneumoniae [24]): > 32 µg/mL; MIC (Acinetobacter baylyi): 0.125 µg/mL (≈ 0.19 µM); MIC (Enterococcus faecium): 0.03 µg/mL (≈ 0.0457 µM); selectivity ratio [25]: 10
2 | COc1cc2c(cc1OCCCC(=O)Nc1cc(C(=O)Nc3ccc4oc(C(=O)N5CCSCC5)cc4c3)n(C)c1)N=C[C@@H]1CCCN1C2=O | > 32 µg/mL | 0.25 µg/mL (≈ 0.358 µM) | 100 | 2 to 4 µg/mL (≈ 2.86 to 5.72 µM) | 2 µg/mL (≈ 2.86 µM) | >=8 - 64 | > 32 µg/mL | 10 | Nd(Insoluble) | 1 µg/mL (≈ 1.43 µM) | 6 to 11 | 1 µg/mL (≈ 1.43 µM) | 5 to 9 | 100 | 1 µg/mL (≈ 1.43 µM) | 100 | 10 | 1 µg/mL | 10 | 6 to 7 | Activity (Klebsiella pneumoniae [26]): inactive; MIC (Acinetobacter baumannii [27]): 4 µg/mL (≈ 5.72 µM); Ratio (Klebsiella pneumoniae [28]): 4; MIC (Pseudomonas aeruginosa [21]): 32 to 128 µg/mL (≈ 45.8 to 183 µM); MIC (Pseudomonas aeruginosa [22]): > 32 µg/mL; selectivity ratio [23]: 10; MIC (Klebsiella pneumoniae [24]): ≥ 128 µg/mL; MIC (Acinetobacter baylyi): 1 µg/mL (≈ 1.43 µM); MIC (Enterococcus faecium): 0.03 µg/mL (≈ 0.0429 µM); MIC (Klebsiella pneumoniae [29]): 8 µg/mL; selectivity ratio [25]: 10
